Assay results: ChEMBL document CHEMBL1141258, “Prismatomerin, a new iridoid from Prismatomeris tetrandra. Structure elucidation, determination of absolute configuration, and cytotoxicity” (J Nat Prod, 2007)
pIC50: −log10 of the molar value. Converted amounts (≈) assume the structure as drawn.

How the values were obtained:
L929 = test: Antiproliferative activity against mouse L929 cells after 5 days by SRB assay; format: cell-based; conditions: L929, 120 h
[1] = Antiproliferative activity against human KB31 cells after 5 days by MTT assay; conditions: KB 3-1, 120 h
SW480 = test: Antiproliferative activity against human SW480 cells after 5 days by MTT assay; conditions: SW480, 120 h
A549 = test: Antiproliferative activity against human A549 cells after 5 days by MTT assay; conditions: A549, 120 h
[2] = Toxicity in brine shrimp after 48 hrs; format: organism-based; conditions: artemia, in vivo; read-out: LD50
[3] = Toxicity in brine shrimp after 24 hrs; format: organism-based; conditions: artemia, in vivo; read-out: LD50

Row | pIC50 (SW480) | pIC50 (A549) | Structure (SMILES) | pIC50 (L929) | pIC50 [1] | LC50 at 48 h [2] [nM] | LC50 at 24 h [3] [µg/mL]
1 | 7.08 | 5.80 | COC(=O)C1=CO[C@@H]2O[C@H]3/C(=C\c4ccc(OC(C)=O)cc4)C(=O)O[C@]34C=C[C@H]1[C@H]24 | 6.39 | 6.46 |  | 
2 |  |  | COC(=O)C1=CO[C@H](O[C@@H]2O[C@H](CO)[C@@H](O)[C@H](O)[C@H]2O)[C@H]2[C@@H]1C=C[C@@]21C=C(C(O)c2ccc(O)cc2)C(=O)O1 (stereo partly specified) [GAERTNEROSIDE] |  |  | 224 | 0.38 (≈ 0.693 µM)
